Reference: patent publication US12491252B2, “Substituted 3-amino-5-phenylbenzamide compounds as covalent inhibitors of enhancer zeste homolog 2 (EZH2) and proteolysis-targeting chimeric derivatives thereof (PROTACs) that induce degradation of EZH2” (Northwestern University, priority 2021, dated 2025)
Each block holds one compound with its values, some of them ahead of it.

Columns and labels:
[1] = target: T1, EZH2 (Homo sapiens, UniProt Q15910); assay: Western blot of EZH2 protein in C4-2B cells; conditions: for Degrading EZH2 protein: FIG. 5, 24 or 48 hours; for Degradation of EZH2: FIG. 14, 10 μM for 6 days
[2] = system: SUZ12; assay: Western blot of SUZ12 in C4-2B cells; format: cell-based; conditions: FIG. 14, 10 μM for 6 days
[3] = system: H3K27me3; assay: Western blot of H3K27me3 levels in C4-2B cells; format: cell-based; conditions: FIG. 14, 10 μM for 6 days
[4] = Pharmacokinetics in mice, IP cassette dosing, plasma LC/MS/MS; format: in vivo, C57Bl/6 mouse; conditions: mouse, C57Bl/6 mice, 4 mg/kg IP, cassette format
Description: FIG. 35. Pharmacokinetics of indicated compounds. Compounds were administered to C57Bl/6 mouse mice at 4 mg/kg using intraperitoneal (IP) injection in cassette format. Plasma was collected at the indicated time points and analyzed by LC/MS/MS using standard methods.
For assessing pharmacokinetics, compounds were administered to C57Bl/6 mouse mice at 4 mg/kg using intraperitoneal (IP) injection in cassette format. Plasma was collected at the indicated time points and analyzed by LC/MS/MS using standard methods.

[5] = target: T1, EZH2; assay: Western blot of EZH2 with esiRNA knockdown of VHL or siRNA control; format: cell-based; conditions: FIG. 16; siRNA control lane; duplicate
Description: FIG. 16. Cells were treated with indicated compounds with either esiRNA knockdown of VHL or siRNA control (no EZH2 knockdown) and blotted for EZH2 and VHL. […] Experiment was run in duplicate with both replicates shown on the left and right sides.

[6] = system: LNCaP cells; assay: Live imaging cell proliferation of LNCaP cells; format: cell-based; conditions: FIG. 17A, monitored over 168 hours
Description: FIG. 17A-17B. (FIG. 17A) Live imaging cell proliferation of LNCaP cells. […] DMSO is set as the negative control. […] (FIG. 17B) Colony assays using LnCaP cells after treatment with the indicated compounds for 7 days.

[7] = system: LNCaP cells; assay: Colony assay using LnCaP cells; format: cell-based; conditions: FIG. 17B, treatment for 7 days
Description: (§1) FIG. 17A-17B. (FIG. 17A) Live imaging cell proliferation of LNCaP cells. Cells were treated with indicated compounds and monitored over 168 hours for proliferation by phase object confluence. DMSO is set as the negative control. […] (FIG. 17B) Colony assays using LnCaP cells after treatment with the indicated compounds for 7 days.

[8] = system: LNCaP cells; assay: Imaging of LnCaP cells (cell density); format: cell-based; conditions: FIG. 18, 12 days' treatment
Description: FIG. 18. Imaging of LnCaP cells after 12 days' treatment with the indicated compounds.

[9] = system: C4-2B cells; assay: Live imaging cell proliferation of C4-2B cells; format: cell-based; conditions: FIG. 20A, monitored over 168 hours
Description: FIG. 20A-20B. (FIG. 20A) Live imaging cell proliferation of C4-2B cells. […] DMSO is set as the negative control. […] (FIG. 20B) Colony assays using C4-2B cells after treatment with the indicated compounds for 7 days.

[10] = system: C4-2B cells; assay: Colony assay using C4-2B cells; format: cell-based; conditions: FIG. 20B, treatment for 7 days
Description: as §1, with “20A-20B.” for “17A-17B.”, “20A)” for “17A)”, “C4-2B” for “LNCaP”, “20B)” for “17B)”, “C4-2B” for “LnCaP”

[11] = system: C4-2B cells; assay: Imaging of C4-2B cells (cell density); format: cell-based; conditions: FIG. 21, 12 days' treatment
Description: FIG. 21. Imaging of C4-2B cells after 12 days' treatment with the indicated compounds.

[12] = target: T1, EZH2; assay: Western blot of EZH2 protein in PC3 cells; conditions: FIG. 26, 6 days treatment
Description: (Upper right western blot) Western blot analysis of EZH2 protein in PC3 cells after 6 days treatment.

[13] = target: T1, EZH2; assay: Western blot of EZH2 protein in DU-145 cells; conditions: FIG. 27, 6 days treatment
Description: (Upper right western blot) Western blot analysis of EZH2 protein in DU-145 cells after 6 days treatment.

[14] = FIG. 7, 24 hours, 5 μM or 10 μM MG132
[15] = FIG. 1, increasing doses 24 or 48 hours, or 0.5 μM over a time course

T1 sequence (Q15910 whole entry): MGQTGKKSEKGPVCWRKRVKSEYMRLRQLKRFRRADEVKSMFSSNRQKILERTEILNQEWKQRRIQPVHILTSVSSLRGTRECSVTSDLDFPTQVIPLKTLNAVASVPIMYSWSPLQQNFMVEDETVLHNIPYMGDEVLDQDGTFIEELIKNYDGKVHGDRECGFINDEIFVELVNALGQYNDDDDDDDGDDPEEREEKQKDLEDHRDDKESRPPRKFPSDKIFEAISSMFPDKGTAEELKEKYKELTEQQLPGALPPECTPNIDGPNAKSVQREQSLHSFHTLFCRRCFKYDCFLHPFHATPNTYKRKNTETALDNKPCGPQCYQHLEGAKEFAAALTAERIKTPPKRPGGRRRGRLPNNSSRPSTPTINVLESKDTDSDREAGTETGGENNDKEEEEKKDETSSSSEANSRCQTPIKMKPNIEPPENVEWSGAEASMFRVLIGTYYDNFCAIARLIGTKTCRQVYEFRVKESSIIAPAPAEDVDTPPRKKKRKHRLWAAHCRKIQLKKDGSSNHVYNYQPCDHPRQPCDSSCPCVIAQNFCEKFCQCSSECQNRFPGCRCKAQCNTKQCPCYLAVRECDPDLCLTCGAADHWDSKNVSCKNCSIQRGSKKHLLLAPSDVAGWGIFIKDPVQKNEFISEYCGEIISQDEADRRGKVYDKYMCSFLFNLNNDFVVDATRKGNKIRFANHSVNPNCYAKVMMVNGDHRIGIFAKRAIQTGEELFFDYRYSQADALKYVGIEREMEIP
T1 sequence (Q15022 whole entry partner): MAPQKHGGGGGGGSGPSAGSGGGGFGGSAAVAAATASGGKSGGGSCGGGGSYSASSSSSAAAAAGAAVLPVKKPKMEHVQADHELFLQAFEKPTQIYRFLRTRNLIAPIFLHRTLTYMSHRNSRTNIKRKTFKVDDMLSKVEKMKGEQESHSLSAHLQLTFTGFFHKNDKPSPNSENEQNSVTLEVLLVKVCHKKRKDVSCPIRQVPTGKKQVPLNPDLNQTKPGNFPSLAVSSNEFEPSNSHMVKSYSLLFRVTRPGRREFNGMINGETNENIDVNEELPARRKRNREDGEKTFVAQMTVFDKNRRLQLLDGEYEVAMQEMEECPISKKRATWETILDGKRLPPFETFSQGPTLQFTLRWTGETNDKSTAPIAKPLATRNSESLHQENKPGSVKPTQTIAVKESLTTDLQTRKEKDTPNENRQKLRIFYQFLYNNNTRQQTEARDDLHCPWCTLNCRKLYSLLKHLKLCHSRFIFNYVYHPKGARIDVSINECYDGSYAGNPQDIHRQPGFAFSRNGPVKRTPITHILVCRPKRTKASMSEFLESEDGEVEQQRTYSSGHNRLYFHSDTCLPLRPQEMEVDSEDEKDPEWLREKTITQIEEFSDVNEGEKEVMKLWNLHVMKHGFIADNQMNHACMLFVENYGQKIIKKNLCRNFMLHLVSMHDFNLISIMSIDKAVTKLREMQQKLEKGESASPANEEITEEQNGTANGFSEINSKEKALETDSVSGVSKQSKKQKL
T1 sequence (O75530 whole entry partner): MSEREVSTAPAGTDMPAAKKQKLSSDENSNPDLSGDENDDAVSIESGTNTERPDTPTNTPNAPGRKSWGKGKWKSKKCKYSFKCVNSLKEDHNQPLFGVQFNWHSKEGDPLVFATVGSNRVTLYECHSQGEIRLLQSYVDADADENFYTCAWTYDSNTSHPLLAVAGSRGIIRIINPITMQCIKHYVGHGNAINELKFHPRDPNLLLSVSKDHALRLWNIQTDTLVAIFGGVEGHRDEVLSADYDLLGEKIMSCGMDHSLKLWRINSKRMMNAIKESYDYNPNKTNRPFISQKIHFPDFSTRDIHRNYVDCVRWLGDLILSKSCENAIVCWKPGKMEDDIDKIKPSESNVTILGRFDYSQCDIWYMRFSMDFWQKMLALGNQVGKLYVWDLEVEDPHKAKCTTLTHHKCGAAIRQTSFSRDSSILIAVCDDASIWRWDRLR

Structure (SMILES): CCN(c1cc(-c2ccc(CN3CCOCC3)cc2)cc(C(=O)NCc2c(C)cc(C)[nH]c2=O)c1C)C1CCN(C(=O)CCCCCCCCCCCCCCC(=O)NCCOc2cccc3c2C(=O)N(C2CCC(=O)NC2=O)C3=O)CC1 (stereo not drawn) [Compound 2100]
- EZH2 protein levels (western blot) ([1]; FIG. 28, 24 hours): reduce EZH2 protein levels

Structure (SMILES): CCN(c1cc(-c2ccc(CN3CCN(C(=O)CCCCCCCCCCC(=O)N[C@H](C(=O)N4C[C@H](O)C[C@@H]4C(=O)NCc4ccc(-c5scnc5C)cc4)C(C)(C)C)CC3)cc2)cc(C(=O)NCc2c(C)cc(C)[nH]c2=O)c1C)C1CCOCC1 [Compound 2304, (2R,4R)-1-[(2S)-2-(12-{4-[(3′-{[(4,6-dimethyl-2-oxo-1,2-dihydropyridin-3-yl)methyl]carbamoyl}-5′-[ethyl(oxan-4-yl)amino]-4′-methyl-[1,1′-biphenyl]-4-yl)methyl]piperazin-1-yl}-12-oxododecanamido)-3,3-dimethylbutanoyl]-4-hydroxy-N-{[4-(4-methyl-1,3-thiazol-5-yl)phenyl]methyl}pyrrolidine-2-carboxamide]
- Reduction of PRC2 component SUZ12 [2]: reduction of PRC2 component SUZ12
- H3K27me3 levels [3]: reduced H3K27me3 levels
- half-life [4]: 3.5 to 6 h
- EZH2 degradation, comparison within a list of VHL-PROTAC ([1]; FIG. 4, 24 hours): most effective
- Degrading EZH2 protein [1]: effective in degrading EZH2 protein
- Degrading EZH2 protein, 2304 versus 2305 ([1]; FIG. 6, 24 or 48 hours): more effective than 2305
- Restoration of EZH2 by proteasome inhibitor MG132 [1, 14]: restored EZH2
- Restoration of EZH2 by proteasome inhibitor MG132 ([1]; FIG. 11, 24 hours, 10 μM MG132): restored EZH2
- Degradation of EZH2 [1]: strong degradation of EZH2
- EZH2 protein levels (western blot) ([1]; FIG. 28, 24 hours): significant reduction in EZH2

Structure (SMILES): CCN(c1cc(-c2ccc(CN3CCN(C(=O)CCCCCCCCCCCCCCC(=O)N[C@H](C(=O)N4C[C@@H](O)C[C@H]4C(=O)NCc4ccc(-c5scnc5C)cc4)C(C)(C)C)CC3)cc2)cc(C(=O)NCc2c(C)cc(C)[nH]c2=O)c1C)C1CCOCC1 [Compound 3571]
- EZH2 protein levels (western blot) [1, 15]: inactive
- Degrading EZH2 protein, versus 2305 ([1]; FIG. 12, 24 hours): less effective than 2305

Structure (SMILES): CCN(c1cc(-c2ccc(CN3CCN(C(=O)CCCCCCCCC(=O)N[C@H](C(=O)N4C[C@H](O)C[C@H]4C(=O)NCc4ccc(-c5scnc5C)cc4)C(C)(C)C)CC3)cc2)cc(C(=O)NCc2c(C)cc(C)[nH]c2=O)c1C)C1CCOCC1 [Compound 6271]
- Restoration of EZH2 by proteasome inhibitor MG132 ([1]; FIG. 11, 24 hours, 10 μM MG132): restored EZH2

Structure (SMILES): CCN(c1cc(-c2ccc(CN3CCN(C(=O)CCCCCCCCCCC(=O)N[C@H](C(=O)N4C[C@@H](O)C[C@H]4C(=O)NCc4ccc(-c5scnc5C)cc4)C(C)(C)C)CC3)cc2)cc(C(=O)NCc2c(C)cc(C)[nH]c2=O)c1C)C1CCOCC1 [Compound 6285]
- Degradation of EZH2 [1]: no ability to degrade EZH2

Structure (SMILES): CCN(c1cc(-c2ccc(CN3CCN(C(=O)CCCCCCCCCC(=O)N[C@H](C(=O)N4C[C@@H](O)C[C@H]4C(=O)NCc4ccc(-c5scnc5C)cc4)C(C)(C)C)CC3)cc2)cc(C(=O)NCc2c(C)cc(C)[nH]c2=O)c1C)C1CCOCC1 [Compound 6286]
- Ability to degrade EZH2 with siRNA control (VHL present) [5]: inactive control
- Cell proliferation by phase object confluence [6]: limited ability to inhibit cell proliferation
- Colonies [7]: attenuated anti-proliferative effects
- Cell density by imaging [8]: attenuated anti-proliferative effects
- Cell proliferation by phase object confluence [9]: limited ability to inhibit cell proliferation
- Colonies [10]: attenuated anti-proliferative effects
- Cell density by imaging [11]: attenuated anti-proliferative effects
- EZH2 protein (western blot) [12]: no changes
- Degradation of EZH2 [1]: no ability to degrade EZH2
- EZH2 protein (western blot) [13]: no changes

Structure (SMILES): CCN(c1cc(-c2ccc(CN3CCN(CCCCCCCCCCCC(=O)N[C@H](C(=O)N4C[C@@H](O)C[C@H]4C(=O)NCc4ccc(-c5scnc5C)cc4)C(C)(C)C)CC3)cc2)cc(C(=O)NCc2c(C)cc(C)[nH]c2=O)c1C)C1CCOCC1 [Compound 6300]
- Cell proliferation by phase object confluence [6]: limited ability to inhibit cell proliferation
- Colonies [7]: attenuated anti-proliferative effects
- Cell density by imaging [8]: attenuated anti-proliferative effects
- Cell proliferation by phase object confluence [9]: limited ability to inhibit cell proliferation
- Colonies [10]: attenuated anti-proliferative effects
- Cell density by imaging [11]: attenuated anti-proliferative effects
- EZH2 protein (western blot) [12]: no changes
- Degradation of EZH2 [1]: no ability to degrade EZH2
- EZH2 protein (western blot) [13]: no changes

Further lines, with some results ahead:

- EZH2 protein levels (western blot) ([1]; FIG. 28, 24 hours): reduce EZH2 protein levels
Structure (SMILES): CCN(c1cc(-c2ccc(CN3CCOCC3)cc2)cc(C(=O)NCc2c(C)cc(C)[nH]c2=O)c1C)C1CCN(C(=O)CCCCCCCCCCC(=O)NCCOc2cccc3c2C(=O)N(C2CCC(=O)NC2=O)C3=O)CC1 (stereo not drawn) [Compound 2099]

- EZH2 protein levels (western blot) ([1]; FIG. 28, 24 hours): inactive at degrading EZH2
Structure (SMILES): CCN(c1cc(-c2ccc(CN3CCN(C(=O)COCC(=O)NCCCC(=O)NCCOc4cccc5c4C(=O)N(C4CCC(=O)NC4=O)C5=O)CC3)cc2)cc(C(=O)NCc2c(C)cc(C)[nH]c2=O)c1C)C1CCOCC1 (stereo not drawn) [Compound 2186]

- EZH2 protein levels (western blot) ([1]; FIG. 28, 24 hours): reduce EZH2 protein levels
Structure (SMILES): CCN(c1cc(-c2ccc(N3CCN(C(=O)CCC(=O)NCCCC(=O)NCCCC(=O)NCCCOc4cccc5c4C(=O)N(C4CCC(=O)NC4=O)C5=O)CC3)cc2)cc(C(=O)NCc2c(C)cc(C)[nH]c2=O)c1C)C1CCOCC1 (stereo not drawn) [Compound 2190]

- half-life [4]: 3.5 to 6 h
- EZH2 protein levels (western blot) [1, 15]: decreases EZH2 protein levels
- Degrading EZH2 protein [1]: effective in degrading EZH2 protein
- Restoration of EZH2 by proteasome inhibitor MG132 [1, 14]: restored EZH2
- EZH2 protein levels (western blot) ([1]; FIG. 28, 24 hours): significant reduction in EZH2
Structure (SMILES): CCN(c1cc(-c2ccc(CN3CCN(C(=O)CCCCCCCCCCCCCCC(=O)N[C@H](C(=O)C4C[C@H](O)C[C@H]4C(=O)NCc4ccc(-c5scnc5C)cc4)C(C)(C)C)CC3)cc2)cc(C(=O)NCc2c(C)cc(C)[nH]c2=O)c1C)C1CCOCC1 (stereo partly drawn) [Compound 2305]
- Rescue of EZH2 protein degradation by proteasome inhibitor MG132 ([1]; FIG. 2, 5 μM compound with or without MG132): can be rescued by proteasome inhibitor MG132

- Restoration of EZH2 by proteasome inhibitor MG132 ([1]; FIG. 11, 24 hours, 10 μM MG132): restored EZH2
Structure (SMILES): CCN(c1cc(-c2ccc(CN3CCN(C(=O)CCCCCCCCCCCC(=O)N[C@H](C(=O)N4C[C@H](O)C[C@H]4C(=O)NCc4ccc(-c5scnc5C)cc4)C(C)(C)C)CC3)cc2)cc(C(=O)NCc2c(C)cc(C)[nH]c2=O)c1C)C1CCOCC1 [Compound 6273]

- Ability to degrade EZH2 at 0.5 μM ([1]; FIG. 28, 24 hours, 0.5 μM): no ability to degrade EZH2
Structure (SMILES): Cc1cc(C)c(CNC(=O)c2cc(-c3ccc(N4CCN(CCNC(=O)CC56CC7CC(CC(C7)C5)C6)CC4)nc3)cc3c2cnn3C(C)C)c(=O)[nH]1 [MS1943, reference compound]
